Marks after values point to notes of the source that are not given here.
Assays:
Assay type in all cases: in vivo
[1] = system: Blumeria graminis f. sp. tritici (also known as Erysiphe graminis f. sp. tritici, the causal agent of wheat powdery mildew); assay: Test D: wheat powdery mildew, preventive spray on wheat seedlings, visual disease rating; conditions: for Test D rating (100 = 100% disease control, 0 = no disease control relative to the controls): wheat powdery mildew, preventive spray on wheat seedlings
Summary of the method: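 Compound suspended in acetone/water (50/50) with 250 ppm Trem 014 and sprayed to run-off on wheat seedlings (200 ppm ≈ 800 g/ha), then inoculated next day with spore dust. Disease rated visually after 8 days at 20 °C as % control relative to untreated plants (0-100).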

[2] = system: Septoria tritici (the causal agent of wheat leaf blotch); assay: Test B: wheat leaf blotch, preventive spray on wheat seedlings, visual disease rating; conditions: for Test B rating (100 = 100% disease control, 0 = no disease control relative to the controls): wheat leaf blotch, preventive spray on wheat seedlings
Summary of the method: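 Wheat seedlings sprayed to run-off with compound suspension (acetone/water with 250 ppm Trem 014; 200 ppm ≈ 800 g/ha, some at 40 ppm), inoculated next day with Septoria tritici spores. 48 h saturated humidity at 24 °C, then 19 days at 20 °C; visual rating, 100 = full control.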

[3] = system: Puccinia recondite f. sp. tritici (the causal agent of wheat leaf rust); assay: Test A: wheat leaf rust, preventive spray on wheat seedlings, visual disease rating; conditions: for Test A rating (100 = 100% disease control, 0 = no disease control relative to the controls): wheat leaf rust, preventive spray on wheat seedlings
Summary of the method: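 Wheat seedlings were sprayed to run-off with compound suspended in acetone/water containing 250 ppm Trem 014 (200 ppm ≈ 800 g/ha; some at 40 ppm). Puccinia recondite spores were inoculated the next day. Plants were held 24 h saturated at 20° C, then 7 days at 20° C, and disease control was rated visually on a 0–100 scale against controls.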

[4] = system: Botrytis cinerea (the causal agent of tomato Botrytis); assay: Test C: tomato Botrytis, preventive spray on tomato seedlings, visual disease rating; conditions: for Test C rating (100 = 100% disease control, 0 = no disease control relative to the controls): tomato Botrytis, preventive spray on tomato seedlings
Summary of the method: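 Test suspension (acetone/water with 250 ppm Trem 014; 200 ppm equivalent to 800 g/ha) sprayed to run-off on tomato seedlings; B. cinerea spores inoculated next day. After 48 h saturated humidity at 20° C then 3 days at 24° C, disease rated visually as % control relative to untreated controls (0–100).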

[5] = asterisk: 40 ppm test suspension
[6] = no asterisk (standard test suspension concentration, not 40 ppm)
[7] = no asterisk: standard test suspension concentration, 100 = 100% disease control, 0 = no control relative to controls

Structure (SMILES)	Test D rating (100 = 100% disease control, 0 = no disease control relative to the controls) [1, 5]	Test B rating (100 = 100% disease control, 0 = no disease control relative to the controls) [2, 5]	Test A rating (100 = 100% disease control, 0 = no disease control relative to the controls) [3, 5]	Test C rating (100 = 100% disease control, 0 = no disease control relative to the controls) [4, 5]	Test D rating (100 = 100% disease control, 0 = no disease control relative to the controls) [1, 6]	Test B rating (100 = 100% disease control, 0 = no disease control relative to the controls) [2, 6]	Test A rating (100 = 100% disease control, 0 = no disease control relative to the controls) [3, 6]	Test C rating (100 = 100% disease control, 0 = no disease control relative to the controls) [4, 6]	also measured
COc1ccc(-n2c(Cl)nc(Cl)c2C(O)c2ccc(F)cc2F)c(F)c1 (stereo not drawn) [compound 328]	64* %	100* %	100* %	100* %	–	–	–	–	–
COc1cc(F)c(C(O)c2c(Cl)nc(C)n2-c2ccc(F)cc2Cl)c(F)c1 (stereo not drawn) [compound 153]	–	–	–	99* %	94%	100%	100%	–	–
Cc1nc(Cl)n(-c2ccc(F)cc2Cl)c1C(O)c1ccc(F)cc1F (single isomer, unassigned) [compound 28]	–	–	–	–	71%	100%	100%	100%	–
Cc1cc(Cl)ccc1C(O)c1c(Cl)nc(C)n1-c1c(F)cccc1F (stereo not drawn) [compound 159]	97* %	100* %	99* %	99* %	–	–	–	–	–
Cc1nc(Cl)n(-c2c(F)cc(F)cc2F)c1C(O)c1ccc(F)cc1F (stereo not drawn) [compound 83]	100* %	100* %	100* %	99* %	–	–	–	–	–
Cc1nc(Br)c(C(O)c2ccc(F)cc2F)n1-c1ccc(F)cc1Cl (stereo not drawn) [compound 399]	–	–	–	–	–	–	–	–	Test D rating (% disease control, wheat powdery mildew) [1, 7]: 90%; Test B rating (% disease control, wheat leaf blotch) [2, 7]: 100%; Test A rating (% disease control, wheat leaf rust) [3, 7]: 100%; Test C rating (% disease control, tomato Botrytis) [4, 7]: 99%
Cc1ncc(C(O)c2ccc(F)cc2Cl)n1-c1c(F)cccc1Br (stereo not drawn) [compound 73]	–	–	–	–	0%	100%	100%	99%	–
Cc1ncc(C(O)c2c(F)cc(F)cc2F)n1-c1ccc(Cl)cc1Cl (stereo not drawn) [compound 361]	–	–	–	–	0%	15%	95%	9%	–
Cc1nc(Br)c(C(O)c2c(F)cc(F)cc2F)n1-c1ccc(F)cc1F (stereo not drawn) [compound 177]	–	–	–	–	0%	100%	100%	99%	–
COc1cc(C)c(C(O)c2c(Br)ncn2-c2ccc(F)cc2Cl)cc1Br (racemic) [compound 229]	0* %	36* %	68* %	0* %	–	–	–	–	–
Cc1cccc(F)c1-n1c(C)nc(Cl)c1C(O)c1ccc(F)cc1F (stereo not drawn) [compound 339]	76* %	98* %	98* %	86* %	–	–	–	–	–
COc1ccc(C(O)c2c(Br)nc(C)n2-c2c(F)cccc2F)c(Cl)c1 (stereo not drawn) [compound 144]	99* %	100* %	100* %	100* %	–	–	–	–	–
Cc1nc(Cl)n(-c2ccc(F)cc2Cl)c1C(O)c1c(F)cccc1F (stereo not drawn) [compound 46]	–	–	–	–	100%	100%	100%	100%	–
Cc1cccc(Cl)c1-n1c(C)nc(Br)c1C(O)c1ccc(F)cc1F (stereo not drawn) [compound 317]	56* %	89* %	100* %	96* %	–	–	–	–	–
Cc1nc(Br)c(C(O)c2ccc(Cl)cc2)n1-c1ccc(Cl)cc1Cl (racemic) [compound 243]	79* %	95* %	98* %	91* %	–	–	–	–	–
OC(c1ccc(F)cc1Br)c1cnc(C2CC2)n1-c1c(F)cccc1Br (stereo not drawn) [compound 95]	–	–	–	–	0%	0%	0%	0%	–
Cc1nc(Cl)n(-c2ccc(F)cc2Br)c1C(O)c1ccc(Cl)cc1Cl (racemic) [compound 11]	–	–	–	–	0%	68%	99%	31%	–
OC(c1ccc(F)cc1Cl)c1c(Br)nc(Br)n1-c1ccc(F)cc1Cl (racemic) [compound 233]	72* %	100* %	100* %	95* %	–	–	–	–	–
Cc1nc(Br)c(C(O)c2ccc(Cl)cc2)n1-c1ccc(F)cc1Cl (stereo not drawn) [compound 60]	–	–	–	–	73%	100%	100%	99%	–
Cc1nc(Cl)c(C(O)c2c(F)cc(F)cc2F)n1-c1ccc(F)cc1Cl (stereo not drawn) [compound 128]	–	–	–	–	0%	100%	100%	99%	–
Cc1nc(Cl)n(-c2ccc(F)cc2F)c1C(O)c1c(F)ccc(I)c1F (racemic) [compound 38]	–	–	–	–	0%	95%	99%	7%	–
Cc1ncc(C(O)c2ccc(Cl)cc2)n1-c1ccc(F)cc1Br (stereo not drawn) [compound 139]	–	–	–	–	0%	49%	86%	0%	–
Cc1cc(F)ccc1C(O)c1c(Cl)nc(Cl)n1-c1c(F)cccc1F (stereo not drawn) [compound 43]	–	–	–	–	100%	100%	100%	100%	–
Cc1nc(Cl)c(C(O)c2ccc(F)cc2F)n1-c1c(F)cccc1Br (stereo not drawn) [compound 316]	95* %	100* %	100* %	99* %	–	–	–	–	–
